Source: patent USRE39591E1, “6-O-substituted ketolides having antibacterial activity” (Abbott Laboratories, priority 1996, dated 2007)
Converted amounts (≈) assume the structure as drawn.

Test system: up to 32 different microorganisms
Assay: in vitro antibacterial activity (MIC), agar dilution on Brain Heart Infusion (BHI) agar with Steers replicator
Type: cell-based
Conditions: unit assumed
Procedure, shortened: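 Twelve plates carried successive aqueous dilutions of test compound in BHI agar; inocula were 1:100 dilutions (1:10 for slow growers such as Micrococcus, Streptococcus), incubated 35°-37° C for 20 to 24 hours. MIC was the lowest concentration giving no growth, slight haze, or sparse isolated colonies versus growth control.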

Structure (SMILES): CC[C@H]1OC(=O)[C@H](C)C(=O)[C@H](C)[C@@H](O[C@@H]2O[C@H](C)C[C@H](N(C)C)[C@H]2O)[C@@](C)(OCC=Cc2ccc3ncc(Br)cc3c2)C[C@@H](C)C(=O)[C@H](C)[C@H]2NC(=O)O[C@@]21C [Example 219, R is —CH2CH═CH-(3-bromo-6-quinolyl)]
- MIC (organism code AA): 0.2 µg/mL (≈ 0.237 µM)
- MIC (organism code BB): 0.2 µg/mL (≈ 0.237 µM)
- MIC (organism code CC): 100 µg/mL (≈ 118 µM)
- MIC (organism code DD): 0.2 µg/mL (≈ 0.237 µM)
- MIC (organism code EE): 0.2 µg/mL (≈ 0.237 µM)
- MIC (organism code FF): 0.2 µg/mL (≈ 0.237 µM)
- MIC (organism code GG): 100 µg/mL (≈ 118 µM)
- MIC (organism code HH): 0.2 µg/mL (≈ 0.237 µM)
- MIC (organism code II): 0.05 µg/mL (≈ 0.0592 µM)
- MIC (organism code JJ): ≤ 0.005 µg/mL
- MIC (organism code KK): 0.02 µg/mL (≈ 0.0237 µM)
- MIC (organism code LL): 0.02 µg/mL (≈ 0.0237 µM)
- MIC (organism code MM): 3.1 µg/mL (≈ 3.67 µM)
- MIC (organism code NN): 0.2 µg/mL (≈ 0.237 µM)
- MIC (organism code OO): 0.05 µg/mL (≈ 0.0592 µM)
- MIC (organism code PP): 0.2 µg/mL (≈ 0.237 µM)
- MIC (organism code QQ): 100 µg/mL (≈ 118 µM)
- MIC (organism code RR): 0.78 µg/mL (≈ 0.923 µM)
- MIC (organism code SS): > 100 µg/mL
- MIC (organism code TT): > 100 µg/mL
- MIC (organism code UU): 0.39 µg/mL (≈ 0.462 µM)
- MIC (organism code VV): 0.05 µg/mL (≈ 0.0592 µM)
- MIC (organism code WW): 2 µg/mL (≈ 2.37 µM)
- MIC (organism code XX): 0.03 µg/mL (≈ 0.0355 µM)
- MIC (organism code YY): 0.03 µg/mL (≈ 0.0355 µM)
- MIC (organism code ZZ): 2 µg/mL (≈ 2.37 µM)
- MIC (organism code ZZA): 0.25 µg/mL (≈ 0.296 µM)

Structure (SMILES): CCC1OC(=O)C(C)C(=O)C(C)C(OC2OC(C)CC(N(C)C)C2O)C(C)(OCC#CC=Cc2ccccc2)CC(C)C(=O)C(C)C2NC(=O)OC12C (stereo not drawn) [Example 291, Compound of Formula (IX): L is CO, T is NH, R is —CH2C≡C-(2-phenylethenyl)]
- MIC (organism code AA): 0.05 µg/mL
- MIC (organism code BB): 0.05 µg/mL
- MIC (organism code CC): > 100 µg/mL
- MIC (organism code DD): 0.05 µg/mL
- MIC (organism code EE): 0.05 µg/mL
- MIC (organism code FF): 0.05 µg/mL
- MIC (organism code GG): > 100 µg/mL
- MIC (organism code HH): 0.05 µg/mL
- MIC (organism code II): 0.02 µg/mL
- MIC (organism code JJ): ≤ 0.005 µg/mL
- MIC (organism code KK): ≤ 0.005 µg/mL
- MIC (organism code LL): ≤ 0.005 µg/mL
- MIC (organism code MM): 3.1 µg/mL
- MIC (organism code NN): 0.1 µg/mL
- MIC (organism code OO): ≤ 0.005 µg/mL
- MIC (organism code PP): 0.05 µg/mL
- MIC (organism code QQ): 25 µg/mL
- MIC (organism code RR): 0.1 µg/mL
- MIC (organism code SS): 50 µg/mL
- MIC (organism code TT): > 100 µg/mL
- MIC (organism code UU): 0.39 µg/mL
- MIC (organism code VV): 0.01 µg/mL
- MIC (organism code WW): 2 µg/mL
- MIC (organism code XX): ≤ 0.004 µg/mL
- MIC (organism code YY): ≤ 0.004 µg/mL
- MIC (organism code ZZ): 1 µg/mL
- MIC (organism code ZZA): 0.125 µg/mL

Structure (SMILES): CCC1OC(=O)C(C)C(=O)C(C)C(OC2OC(C)CC(N(C)C)C2O)C(C)(OCC=Cc2ccc3nccnc3c2)CC(C)C(=O)C(C)C2NC(=O)OC12C (stereo not drawn) [Example 207, R is —CH2CH═CH-(6-quinoxalinyl)]
- MIC (organism code AA): 0.1 µg/mL (≈ 0.13 µM)
- MIC (organism code BB): 0.1 µg/mL (≈ 0.13 µM)
- MIC (organism code CC): > 100 µg/mL
- MIC (organism code DD): 0.1 µg/mL (≈ 0.13 µM)
- MIC (organism code EE): 0.1 µg/mL (≈ 0.13 µM)
- MIC (organism code FF): 0.1 µg/mL (≈ 0.13 µM)
- MIC (organism code GG): > 100 µg/mL
- MIC (organism code HH): 0.1 µg/mL (≈ 0.13 µM)
- MIC (organism code II): 0.02 µg/mL (≈ 0.0261 µM)
- MIC (organism code JJ): ≤ 0.005 µg/mL
- MIC (organism code KK): ≤ 0.005 µg/mL
- MIC (organism code LL): 0.01 µg/mL (≈ 0.013 µM)
- MIC (organism code MM): 1.56 µg/mL (≈ 2.03 µM)
- MIC (organism code NN): 0.2 µg/mL (≈ 0.261 µM)
- MIC (organism code OO): 0.01 µg/mL (≈ 0.013 µM)
- MIC (organism code PP): 0.1 µg/mL (≈ 0.13 µM)
- MIC (organism code QQ): 25 µg/mL (≈ 32.6 µM)
- MIC (organism code RR): 0.2 µg/mL (≈ 0.261 µM)
- MIC (organism code SS): 50 µg/mL (≈ 65.2 µM)
- MIC (organism code TT): > 100 µg/mL
- MIC (organism code UU): 0.39 µg/mL (≈ 0.509 µM)
- MIC (organism code VV): 0.02 µg/mL (≈ 0.0261 µM)
- MIC (organism code WW): 2 µg/mL (≈ 2.61 µM)
- MIC (organism code XX): 0.015 µg/mL (≈ 0.0196 µM)
- MIC (organism code YY): 0.015 µg/mL (≈ 0.0196 µM)
- MIC (organism code ZZ): 64 µg/mL (≈ 83.4 µM)
- MIC (organism code ZZA): 0.5 µg/mL (≈ 0.652 µM)

Structure (SMILES): CCC1OC(=O)C(C)C(=O)C(C)C(OC2OC(C)CC(N(C)C)C2O)C(C)(OCC=Cc2ccc3cc(OC)ccc3c2)CC(C)C(=O)C(C)C2NC(=O)OC12C (stereo not drawn) [Example 283, Compound of Formula (IX): L is CO, T is NH2, R is —CH2CH═CH-(6-methoxy-2-naphthyl)]
- MIC (organism code AA): 0.1 µg/mL
- MIC (organism code BB): 0.1 µg/mL
- MIC (organism code CC): 100 µg/mL
- MIC (organism code DD): 0.1 µg/mL
- MIC (organism code EE): 0.1 µg/mL
- MIC (organism code FF): 0.1 µg/mL
- MIC (organism code GG): 50 µg/mL
- MIC (organism code HH): 0.2 µg/mL
- MIC (organism code II): 0.05 µg/mL
- MIC (organism code JJ): 0.01 µg/mL
- MIC (organism code KK): 0.02 µg/mL
- MIC (organism code LL): ≤ 0.005 µg/mL
- MIC (organism code MM): 3.1 µg/mL
- MIC (organism code NN): 0.2 µg/mL
- MIC (organism code OO): 0.01 µg/mL
- MIC (organism code PP): 0.2 µg/mL
- MIC (organism code QQ): > 100 µg/mL
- MIC (organism code RR): 0.78 µg/mL
- MIC (organism code SS): > 100 µg/mL
- MIC (organism code TT): > 100 µg/mL
- MIC (organism code UU): 0.39 µg/mL
- MIC (organism code VV): 0.2 µg/mL
- MIC (organism code WW): 2 µg/mL
- MIC (organism code XX): ≤ 0.004 µg/mL
- MIC (organism code YY): ≤ 0.004 µg/mL
- MIC (organism code ZZ): 4 µg/mL
- MIC (organism code ZZA): 0.125 µg/mL

Structure (SMILES): CCC1OC(=O)C(C)C(=O)C(C)C(OC2OC(C)CC(N(C)C)C2O)C(C)(OCC=Cc2ccc3ccccc3c2)CC(C)C(=O)C(C)C2NC(=O)OC12C (stereo not drawn) [Example 186, R is —CH2CH═CH-(2-naphthyl)]
- MIC (Candida albicans CCH 442 (code TT)): > 100 µg/mL
- MIC (Enterococcus faecism ATCC 8043 (code II)): 0.05 µg/mL (≈ 0.0654 µM)
- MIC (Escherichia coli DC-2 (code SS)): > 100 µg/mL
- MIC (Escherichia coli JUHL (code QQ)): > 100 µg/mL
- MIC (Escherichia coli SS (code RR)): 0.39 µg/mL (≈ 0.51 µM)
- MIC (Haemophilis influenzae DILL AMP R (code WW)): 16 µg/mL (≈ 20.9 µM)
- MIC (Micrococcus luteus ATCC 4698 (code PP)): 0.1 µg/mL (≈ 0.131 µM)
- MIC (Micrococcus luteus ATCC 9341 (code OO)): < 0.005 µg/mL
- MIC (Mycobacterium smegmatis ATCC 114 (code UU)): 0.2 µg/mL (≈ 0.261 µM)
- MIC (Nocardia Asteroides ATCC9970 (code VV)): 0.1 µg/mL (≈ 0.131 µM)
- MIC (Staphylococcus aureus 1775 (code GG)): > 100 µg/mL
- MIC (Staphylococcus aureus A5177 (code BB)): 0.01 µg/mL (≈ 0.0131 µM)
- MIC (Staphylococcus aureus A-5278 (code CC)): > 100 µg/mL
- MIC (Staphylococcus aureus ATCC 6538P (code AA)): 0.1 µg/mL (≈ 0.131 µM)
- MIC (Staphylococcus aureus CMX 553 (code FF)): 0.01 µg/mL (≈ 0.0131 µM)
- MIC (Staphylococcus aureus CMX 642A (code DD)): 0.1 µg/mL (≈ 0.131 µM)
- MIC (Staphylococcus aureus NCTC10649M (code EE)): 0.1 µg/mL (≈ 0.131 µM)
- MIC (Staphylococcus epidermidis 3519 (code HH)): 0.1 µg/mL (≈ 0.131 µM)
- MIC (Streptococcus Pneumonia 5649 (code ZZA)): 1 µg/mL (≈ 1.31 µM)
- MIC (Streptococcus Pneumonia 5979 (code ZZ)): > 128 µg/mL
- MIC (Streptococcus Pneumonia ATCC6303 (code XX)): 0.03 µg/mL (≈ 0.0392 µM)
- MIC (Streptococcus Pneumonia GYR 1171 (code YY)): 0.015 µg/mL (≈ 0.0196 µM)
- MIC (Streptococcus agalactiae CMX 508 (code KK)): 0.01 µg/mL (≈ 0.0131 µM)
- MIC (Streptococcus bovis A-5169 (code JJ)): ≤ 0.005 µg/mL
- MIC (Streptococcus pyogenes 930 (code MM)): 3.1 µg/mL (≈ 4.05 µM)
- MIC (Streptococcus pyogenes EES61 (code LL)): 0.01 µg/mL (≈ 0.0131 µM)
- MIC (Streptococcus pyogenes PIU 2548 (code NN)): 0.1 µg/mL (≈ 0.131 µM)

Structure (SMILES): CC[C@H]1OC(=O)[C@H](C)C(=O)[C@H](C)[C@@H](O[C@@H]2O[C@H](C)C[C@H](N(C)C)[C@H]2O)[C@@](C)(OCC#Cc2ccc3cc(Cl)ccc3c2)C[C@@H](C)C(=O)[C@H](C)[C@H]2NC(=O)O[C@@]21C [Example 253, Compound of Formula (IX): L is CO, T is NH, R is —CH2—C≡C-(6-chloro-2-naphthyl)]
- MIC (organism code AA): 0.05 µg/mL
- MIC (organism code BB): 0.05 µg/mL
- MIC (organism code CC): > 100 µg/mL
- MIC (organism code DD): 0.05 µg/mL
- MIC (organism code EE): 0.1 µg/mL
- MIC (organism code FF): 0.05 µg/mL
- MIC (organism code GG): > 100 µg/mL
- MIC (organism code HH): 0.05 µg/mL
- MIC (organism code II): 0.05 µg/mL
- MIC (organism code JJ): 0.02 µg/mL
- MIC (organism code KK): 0.02 µg/mL
- MIC (organism code LL): 0.01 µg/mL
- MIC (organism code MM): 0.78 µg/mL
- MIC (organism code NN): 0.05 µg/mL
- MIC (organism code OO): 0.01 µg/mL
- MIC (organism code PP): 0.1 µg/mL
- MIC (organism code QQ): 50 µg/mL
- MIC (organism code RR): 0.3 µg/mL
- MIC (organism code SS): 50 µg/mL
- MIC (organism code TT): > 100 µg/mL
- MIC (organism code UU): 0.2 µg/mL
- MIC (organism code VV): 0.02 µg/mL
- MIC (organism code WW): 2 µg/mL
- MIC (organism code XX): 0.015 µg/mL
- MIC (organism code YY): 0.03 µg/mL
- MIC (organism code ZZ): 1 µg/mL
- MIC (organism code ZZA): 0.25 µg/mL
